According to patent publication US11065232B2, “Dihydrotetrabenazine for the treatment of anxiety and psychoses” (ADEPTIO PHARMACEUTICALS LIMITED, priority 2017, dated 2021):

What was measured:
[1] = molecular target: 5-HT6 (h) (Homo sapiens, UniProt P50406); experiment: Receptor protein binding studies, 5-HT6
Source text: (§1) The four 3,11b trans-dihydrotetrabenazine isomers (+)-α, (−)-α, (+)-β and (−)-β were subjected to specific binding assays to test their ability to bind to the receptors and transporter proteins described below. The results are set out in Table 1

[2] = molecular target: D3 (h) (antagonist radioligand) (Homo sapiens, UniProt P35462); experiment: Receptor protein binding studies, D3
Sequence of D3 (h) (antagonist radioligand) (P35462 whole entry): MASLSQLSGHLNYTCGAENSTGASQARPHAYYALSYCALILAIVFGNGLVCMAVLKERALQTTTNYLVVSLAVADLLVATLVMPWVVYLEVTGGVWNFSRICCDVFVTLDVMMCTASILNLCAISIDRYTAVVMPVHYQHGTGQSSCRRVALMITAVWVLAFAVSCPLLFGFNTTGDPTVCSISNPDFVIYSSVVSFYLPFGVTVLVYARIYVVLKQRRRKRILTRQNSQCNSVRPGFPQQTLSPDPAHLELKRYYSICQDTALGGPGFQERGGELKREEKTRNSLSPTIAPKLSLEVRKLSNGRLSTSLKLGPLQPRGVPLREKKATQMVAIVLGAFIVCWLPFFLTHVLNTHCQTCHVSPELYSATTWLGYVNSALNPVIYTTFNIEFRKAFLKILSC
Source text: as §1

[3] = tested on: I2 (antagonist radioligand); experiment: Receptor protein binding studies, I2
Source text: as §1

[4] = molecular target: Sigma 1 (h) (agonist radioligand) (Homo sapiens, UniProt Q99720); experiment: Receptor protein binding studies, Sigma 1
Sequence of Sigma 1 (h) (agonist radioligand) (Q99720 whole entry): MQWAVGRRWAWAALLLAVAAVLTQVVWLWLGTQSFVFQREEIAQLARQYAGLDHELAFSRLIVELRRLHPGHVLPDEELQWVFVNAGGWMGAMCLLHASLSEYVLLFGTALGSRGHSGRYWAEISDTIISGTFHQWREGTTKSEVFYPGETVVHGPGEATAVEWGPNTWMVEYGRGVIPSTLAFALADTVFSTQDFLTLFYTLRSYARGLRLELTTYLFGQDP
Source text: as §1

[5] = molecular target: hERG (membrane preparation) (antagonist radioligand) (Homo sapiens, UniProt Q12809); experiment: Receptor protein binding studies, hERG
Sequence of hERG (membrane preparation) (antagonist radioligand) (Q12809 whole entry): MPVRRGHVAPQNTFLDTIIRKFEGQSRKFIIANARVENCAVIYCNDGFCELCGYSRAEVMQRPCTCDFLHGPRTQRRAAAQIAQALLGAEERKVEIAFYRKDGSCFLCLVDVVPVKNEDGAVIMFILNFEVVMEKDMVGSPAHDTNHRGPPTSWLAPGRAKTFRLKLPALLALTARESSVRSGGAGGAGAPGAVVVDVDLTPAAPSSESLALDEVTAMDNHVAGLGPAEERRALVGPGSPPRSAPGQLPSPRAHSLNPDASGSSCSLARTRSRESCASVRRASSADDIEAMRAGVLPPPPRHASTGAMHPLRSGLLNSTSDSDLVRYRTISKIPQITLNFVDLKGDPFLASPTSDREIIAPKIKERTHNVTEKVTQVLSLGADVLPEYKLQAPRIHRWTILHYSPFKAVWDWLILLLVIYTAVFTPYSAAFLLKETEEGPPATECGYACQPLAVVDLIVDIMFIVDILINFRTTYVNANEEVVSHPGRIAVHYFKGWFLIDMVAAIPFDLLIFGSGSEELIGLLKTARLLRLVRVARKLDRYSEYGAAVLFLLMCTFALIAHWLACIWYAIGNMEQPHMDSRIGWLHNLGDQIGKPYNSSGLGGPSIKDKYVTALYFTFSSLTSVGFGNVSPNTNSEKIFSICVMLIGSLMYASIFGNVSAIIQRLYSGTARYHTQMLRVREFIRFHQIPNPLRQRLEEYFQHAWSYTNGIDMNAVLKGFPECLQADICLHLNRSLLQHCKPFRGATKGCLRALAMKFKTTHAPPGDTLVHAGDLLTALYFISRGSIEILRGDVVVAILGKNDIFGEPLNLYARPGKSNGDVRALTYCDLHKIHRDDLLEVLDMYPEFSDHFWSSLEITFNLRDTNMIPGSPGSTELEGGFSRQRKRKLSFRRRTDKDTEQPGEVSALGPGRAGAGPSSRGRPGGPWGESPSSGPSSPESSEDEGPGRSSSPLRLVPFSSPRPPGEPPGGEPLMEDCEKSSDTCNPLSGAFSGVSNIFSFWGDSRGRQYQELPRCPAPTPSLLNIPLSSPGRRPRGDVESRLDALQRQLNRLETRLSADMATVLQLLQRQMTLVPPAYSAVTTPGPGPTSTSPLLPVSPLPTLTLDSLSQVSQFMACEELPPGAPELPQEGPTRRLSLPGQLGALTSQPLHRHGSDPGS
Source text: as §1

[6] = molecular target: T1, 5-HT2C (h) (agonist radioligand) (Homo sapiens, UniProt P28335); experiment: Receptor protein binding studies, 5-HT2C
T1 sequence (P28335 33-458): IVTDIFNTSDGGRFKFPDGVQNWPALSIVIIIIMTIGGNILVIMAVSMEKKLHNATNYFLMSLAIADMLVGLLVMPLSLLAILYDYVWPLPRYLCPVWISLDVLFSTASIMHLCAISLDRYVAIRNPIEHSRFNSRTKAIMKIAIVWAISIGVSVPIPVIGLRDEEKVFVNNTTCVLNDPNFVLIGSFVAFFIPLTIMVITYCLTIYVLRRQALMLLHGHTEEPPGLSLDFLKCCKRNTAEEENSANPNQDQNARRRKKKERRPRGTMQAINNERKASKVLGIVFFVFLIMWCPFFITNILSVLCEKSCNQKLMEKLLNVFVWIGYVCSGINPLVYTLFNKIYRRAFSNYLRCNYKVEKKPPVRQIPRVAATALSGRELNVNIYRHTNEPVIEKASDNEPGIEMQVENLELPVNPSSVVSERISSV
Source text: as §1

[7] = molecular target: D5 (h) (antagonist radioligand) (Homo sapiens, UniProt P21918); experiment: Receptor protein binding studies, D5
Sequence of D5 (h) (antagonist radioligand) (P21918 whole entry): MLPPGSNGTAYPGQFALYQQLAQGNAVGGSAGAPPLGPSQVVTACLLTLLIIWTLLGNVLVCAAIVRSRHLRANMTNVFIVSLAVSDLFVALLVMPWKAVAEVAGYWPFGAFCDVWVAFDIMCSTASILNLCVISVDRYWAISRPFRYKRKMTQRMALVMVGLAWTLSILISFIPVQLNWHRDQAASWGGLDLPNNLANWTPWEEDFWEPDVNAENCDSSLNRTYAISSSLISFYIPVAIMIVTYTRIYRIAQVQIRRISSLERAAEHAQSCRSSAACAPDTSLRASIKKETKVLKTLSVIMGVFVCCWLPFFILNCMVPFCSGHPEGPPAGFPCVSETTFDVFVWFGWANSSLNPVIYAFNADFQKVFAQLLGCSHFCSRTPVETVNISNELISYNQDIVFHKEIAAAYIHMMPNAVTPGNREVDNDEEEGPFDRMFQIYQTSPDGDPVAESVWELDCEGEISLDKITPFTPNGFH
Source text: as §1

[8] = molecular target: T2, 5-HT1A(h) (agonist radioligand) (Homo sapiens, UniProt P08908); experiment: Receptor protein binding studies, 5-HT1A
T2 sequence (P08908 1-422): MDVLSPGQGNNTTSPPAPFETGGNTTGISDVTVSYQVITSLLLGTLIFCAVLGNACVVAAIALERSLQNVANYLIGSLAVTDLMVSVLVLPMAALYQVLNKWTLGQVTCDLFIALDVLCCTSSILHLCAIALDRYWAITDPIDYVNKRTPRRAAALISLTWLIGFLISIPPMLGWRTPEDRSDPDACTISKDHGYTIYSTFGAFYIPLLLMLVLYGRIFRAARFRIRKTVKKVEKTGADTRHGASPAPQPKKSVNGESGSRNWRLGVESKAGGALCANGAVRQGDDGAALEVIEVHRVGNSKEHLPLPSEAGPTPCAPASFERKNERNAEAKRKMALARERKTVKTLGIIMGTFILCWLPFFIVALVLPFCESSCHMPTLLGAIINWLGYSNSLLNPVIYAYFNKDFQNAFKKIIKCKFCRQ
Source text: as §1

[9] = molecular target: T3, alpha 1D (h) (antagonist radioligand) (Homo sapiens, UniProt P25100); experiment: Receptor protein binding studies, alpha 1D
T3 sequence (P25100 1-572): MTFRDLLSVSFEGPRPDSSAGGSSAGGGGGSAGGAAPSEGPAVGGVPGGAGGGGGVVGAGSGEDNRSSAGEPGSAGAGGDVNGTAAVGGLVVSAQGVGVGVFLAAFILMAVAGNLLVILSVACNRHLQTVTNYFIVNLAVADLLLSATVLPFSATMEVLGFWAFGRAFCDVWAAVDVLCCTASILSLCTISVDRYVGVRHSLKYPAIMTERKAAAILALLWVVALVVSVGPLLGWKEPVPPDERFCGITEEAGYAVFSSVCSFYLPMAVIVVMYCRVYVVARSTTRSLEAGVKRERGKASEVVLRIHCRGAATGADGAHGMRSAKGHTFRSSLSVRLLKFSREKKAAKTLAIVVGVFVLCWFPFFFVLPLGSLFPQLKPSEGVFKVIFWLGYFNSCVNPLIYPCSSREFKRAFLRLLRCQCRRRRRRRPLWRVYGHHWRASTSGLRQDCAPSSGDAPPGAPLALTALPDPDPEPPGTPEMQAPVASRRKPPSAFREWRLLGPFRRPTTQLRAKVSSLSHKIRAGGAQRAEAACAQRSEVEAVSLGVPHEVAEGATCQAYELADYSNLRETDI
Source text: as §1

[10] = molecular target: D2S (h) (antagonist radioligand) (Homo sapiens, UniProt P14416); experiment: Receptor protein binding studies, D2S
Sequence of D2S (h) (antagonist radioligand) (P14416 1-414 isoform P14416-2): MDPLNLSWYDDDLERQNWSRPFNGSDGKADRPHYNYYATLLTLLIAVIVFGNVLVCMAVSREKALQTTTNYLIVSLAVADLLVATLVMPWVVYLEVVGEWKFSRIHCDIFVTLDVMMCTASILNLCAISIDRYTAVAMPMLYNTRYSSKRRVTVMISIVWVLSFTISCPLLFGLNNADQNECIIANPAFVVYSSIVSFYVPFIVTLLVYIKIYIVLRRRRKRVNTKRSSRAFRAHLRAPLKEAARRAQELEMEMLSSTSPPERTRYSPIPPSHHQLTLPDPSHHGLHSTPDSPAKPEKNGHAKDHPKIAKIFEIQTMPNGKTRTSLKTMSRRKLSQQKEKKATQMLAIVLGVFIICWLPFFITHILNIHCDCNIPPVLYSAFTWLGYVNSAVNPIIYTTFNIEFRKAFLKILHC
Source text: as §1

[11] = molecular target: Sigma 2 (h) (agonist radioligand) (Homo sapiens, UniProt Q5BJF2); experiment: Receptor protein binding studies, Sigma 2
Sequence of Sigma 2 (h) (agonist radioligand) (Q5BJF2 whole entry): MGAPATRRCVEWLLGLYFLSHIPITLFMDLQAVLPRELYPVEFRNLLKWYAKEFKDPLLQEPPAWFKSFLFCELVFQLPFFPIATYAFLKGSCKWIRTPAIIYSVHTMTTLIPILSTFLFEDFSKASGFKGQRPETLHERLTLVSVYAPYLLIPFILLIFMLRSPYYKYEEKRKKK
Source text: as §1

[12] = molecular target: T4, alpha 2A (h) (antagonist radioligand) (Homo sapiens, UniProt P08913); experiment: Receptor protein binding studies, alpha 2A
T4 sequence (P08913 1-465): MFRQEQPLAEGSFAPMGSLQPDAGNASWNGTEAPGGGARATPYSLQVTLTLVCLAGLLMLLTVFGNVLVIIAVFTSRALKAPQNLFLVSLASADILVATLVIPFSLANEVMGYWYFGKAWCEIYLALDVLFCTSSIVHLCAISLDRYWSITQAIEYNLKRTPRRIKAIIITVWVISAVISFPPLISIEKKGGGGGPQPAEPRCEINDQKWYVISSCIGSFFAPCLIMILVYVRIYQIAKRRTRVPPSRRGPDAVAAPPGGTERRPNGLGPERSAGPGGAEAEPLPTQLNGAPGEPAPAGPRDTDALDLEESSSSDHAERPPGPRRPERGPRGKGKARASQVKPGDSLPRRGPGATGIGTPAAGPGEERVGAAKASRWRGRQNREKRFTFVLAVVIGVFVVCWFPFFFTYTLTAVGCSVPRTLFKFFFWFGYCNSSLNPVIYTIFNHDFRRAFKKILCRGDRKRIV
Source text: as §1

[13] = molecular target: 5-HT4e (h) (antagonist radioligand) (Homo sapiens, UniProt Q13639); experiment: Receptor protein binding studies, 5-HT4e
Sequence of 5-HT4e (h) (antagonist radioligand) (Q13639 1-378 isoform Q13639-5): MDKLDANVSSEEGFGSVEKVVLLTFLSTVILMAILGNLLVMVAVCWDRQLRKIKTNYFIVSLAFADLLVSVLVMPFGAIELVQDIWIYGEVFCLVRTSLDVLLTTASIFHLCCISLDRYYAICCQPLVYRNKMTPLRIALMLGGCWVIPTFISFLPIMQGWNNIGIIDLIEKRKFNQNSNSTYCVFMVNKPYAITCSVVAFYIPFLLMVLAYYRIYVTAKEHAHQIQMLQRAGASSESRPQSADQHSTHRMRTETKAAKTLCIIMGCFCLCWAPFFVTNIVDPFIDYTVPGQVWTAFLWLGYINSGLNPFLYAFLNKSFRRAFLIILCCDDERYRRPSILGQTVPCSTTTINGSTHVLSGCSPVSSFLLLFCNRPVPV
Source text: as §1

Sequence of 5-HT6 (h) (P50406 whole entry): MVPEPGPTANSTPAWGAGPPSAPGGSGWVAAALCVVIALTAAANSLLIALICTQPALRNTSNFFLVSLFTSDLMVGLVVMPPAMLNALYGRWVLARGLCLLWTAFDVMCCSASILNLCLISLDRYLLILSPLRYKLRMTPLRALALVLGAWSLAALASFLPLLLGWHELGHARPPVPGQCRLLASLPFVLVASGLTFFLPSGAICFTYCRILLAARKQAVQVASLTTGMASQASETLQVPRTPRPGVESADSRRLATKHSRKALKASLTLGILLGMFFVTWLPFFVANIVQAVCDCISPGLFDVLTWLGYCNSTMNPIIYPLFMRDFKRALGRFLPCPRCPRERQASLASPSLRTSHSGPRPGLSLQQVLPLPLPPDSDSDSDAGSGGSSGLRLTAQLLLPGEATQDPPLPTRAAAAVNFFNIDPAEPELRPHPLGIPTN

Substance | % Inhibition of specific binding ([1]; CONC 1.0E−05 (unit not given)) | % Inhibition of specific binding ([1]; CONC 1.0E−06 (unit not given)) | % Inhibition of specific binding ([2]; CONC 1.0E−05 (unit not given)) | % Inhibition of specific binding ([2]; CONC 1.0E−06 (unit not given)) | % Inhibition of specific binding ([3]; CONC 1.0E−05 (unit not given)) | % Inhibition of specific binding ([3]; CONC 1.0E−06 (unit not given)) | % Inhibition of specific binding ([4]; CONC 1.0E−05 (unit not given)) | % Inhibition of specific binding ([4]; CONC 1.0E−06 (unit not given)) | % Inhibition of specific binding ([5]; CONC 1.0E−05 (unit not given)) | % Inhibition of specific binding ([5]; CONC 1.0E−06 (unit not given)) | % Inhibition of specific binding ([6]; CONC 1.0E−05 (unit not given)) | % Inhibition of specific binding ([6]; CONC 1.0E−06 (unit not given)) | % Inhibition of specific binding ([7]; CONC 1.0E−05 (unit not given)) | % Inhibition of specific binding ([7]; CONC 1.0E−06 (unit not given)) | % Inhibition of specific binding ([8]; CONC 1.0E−05 (unit not given)) | % Inhibition of specific binding ([8]; CONC 1.0E−06 (unit not given)) | % Inhibition of specific binding ([9]; CONC 1.0E−05 (unit not given)) | % Inhibition of specific binding ([9]; CONC 1.0E−06 (unit not given)) | % Inhibition of specific binding ([10]; CONC 1.0E−05 (unit not given)) | % Inhibition of specific binding ([10]; CONC 1.0E−06 (unit not given)) | other results
(+)-α-dihydrotetrabenazine [(+)-Alpha] | 35% | −1% | 2% | −14% | 20% | 1% | 96% | 64% | 33% | 2% | 3% | −8% | −8% | −7% | 83% | 38% | −10% | 15% | 7% | −1% | % Inhibition of specific binding ([11]; CONC 1.0E−05 (unit not given)): 70%; % Inhibition of specific binding ([11]; CONC 1.0E−06 (unit not given)): 34%; % Inhibition of specific binding ([12]; CONC 1.0E−05 (unit not given)): 7%; % Inhibition of specific binding ([12]; CONC 1.0E−06 (unit not given)): 5%; % Inhibition of specific binding ([13]; CONC 1.0E−05 (unit not given)): 40%; % Inhibition of specific binding ([13]; CONC 1.0E−06 (unit not given)): 2%
(−)-α-dihydrotetrabenazine [(−)-Alpha] | 29% | 6% | 79% | 26% | 12% | 13% | 78% | 40% | 19% | 5% | 16% | 0% | 23% | −3% | 96% | 80% | 25% | 13% | 73% | 22% | % Inhibition of specific binding ([11]; CONC 1.0E−05 (unit not given)): 85%; % Inhibition of specific binding ([11]; CONC 1.0E−06 (unit not given)): 52%; % Inhibition of specific binding ([12]; CONC 1.0E−05 (unit not given)): 65%; % Inhibition of specific binding ([12]; CONC 1.0E−06 (unit not given)): 30%; % Inhibition of specific binding ([13]; CONC 1.0E−05 (unit not given)): 26%; % Inhibition of specific binding ([13]; CONC 1.0E−06 (unit not given)): 4%
(+)-β-dihydrotetrabenazine [(+)-Beta] | 6% | 15% | 12% | −18% | 11% | 6% | 99% | 92% | 8% | 3% | −5% | 2% | −5% | −8% | 64% | 20% | 20% | 18% | 7% | −8% | % Inhibition of specific binding ([11]; CONC 1.0E−05 (unit not given)): 85%; % Inhibition of specific binding ([11]; CONC 1.0E−06 (unit not given)): 41%; % Inhibition of specific binding ([12]; CONC 1.0E−05 (unit not given)): 11%; % Inhibition of specific binding ([12]; CONC 1.0E−06 (unit not given)): −1%; % Inhibition of specific binding ([13]; CONC 1.0E−05 (unit not given)): 19%; % Inhibition of specific binding ([13]; CONC 1.0E−06 (unit not given)): −4%
